Source: patent US11541029B2, “High penetration compositions and their applications” (Techfields Pharma Co., Ltd., priority 2008, dated 2023)

Tested on: SLAC/MRL/LPR mice
Assay: Lupus in MRL/LPR mice treated from 8 weeks old, 30 mg/kg (10% aq.) on back skin twice per day
Assay type: in vivo
Experimental: . Progression of lupus was monitored once a week by measurement of hematuria, body weight and survival rate. The experiments were carried out in two groups of mice. One group of mice were 8 weeks old and had not shown SLE characteristics (Table 26a). The other group of mice were 16 weeks old, and had shown SLE characteristics (Table 26b).

CCN(CC)CCOC(=O)c1ccccc1OC(C)=O.Cl [P-1, diethylaminoethyl acetylsalicylate.HCl salt]
50.7 ± 2.6 g: Body Weight (week 26)
50.1 ± 2.0 g: Body Weight (week 29) | Body Weight (week 47)
50.7 ± 2.2 g: Body Weight (week 43)
49.8 ± 2.1 g: Body Weight (week 30)
50.6 ± 2.3 g: Body Weight (week 46)
48.9 ± 2.6 g: Body Weight (week 15)
50.7 ± 2.4 g: Body Weight (week 49)
49.6 ± 2.1 g: Body Weight (week 16)
50.2 ± 2.5 g: Body Weight (week 17)
50.6 ± 2.0 g: Body Weight (week 28)
36.2 ± 2.7 g: Body Weight (week 10)
50.3 ± 2.6 g: Body Weight (week 44)
30.5 ± 2.6 g: Body Weight (week 8)
51.1 ± 2.6 g: Body Weight (week 38) | Body Weight (week 42)
50.3 ± 2.4 g: Body Weight (week 35)
50.8 ± 2.0 g: Body Weight (week 32)
0: Hematuria (0-4) (week 8) | Hematuria (0-4) (week 9) | Hematuria (0-4) (week 10) | Hematuria (0-4) (week 11) | Hematuria (0-4) (week 12) | Hematuria (0-4) (week 13) | Hematuria (0-4) (week 14) | Hematuria (0-4) (week 15) | Hematuria (0-4) (week 16) | Hematuria (0-4) (week 17) | Hematuria (0-4) (week 18) | Hematuria (0-4) (week 19) | Hematuria (0-4) (week 20) | Hematuria (0-4) (week 21) | Hematuria (0-4) (week 22) | Hematuria (0-4) (week 23) | Hematuria (0-4) (week 24) | Hematuria (0-4) (week 25) | Hematuria (0-4) (week 26) | Hematuria (0-4) (week 27) | Hematuria (0-4) (week 28) | Hematuria (0-4) (week 29) | Hematuria (0-4) (week 30) | Hematuria (0-4) (week 31) | Hematuria (0-4) (week 32) | Hematuria (0-4) (week 33) | Hematuria (0-4) (week 34) | Hematuria (0-4) (week 35) | Hematuria (0-4) (week 36) | Hematuria (0-4) (week 37) | Hematuria (0-4) (week 38) | Hematuria (0-4) (week 39) | Hematuria (0-4) (week 40) | Hematuria (0-4) (week 41) | Hematuria (0-4) (week 42) | Hematuria (0-4) (week 43) | Hematuria (0-4) (week 44) | Hematuria (0-4) (week 45) | Hematuria (0-4) (week 46) | Hematuria (0-4) (week 47) | Hematuria (0-4) (week 48) | Hematuria (0-4) (week 49) | Hematuria (0-4) (week 50)
50.3 ± 2.5 g: Body Weight (week 48)
44.7 ± 2.4 g: Body Weight (week 13)
33.5 ± 2.1 g: Body Weight (week 9)
50.4 ± 2.2 g: Body Weight (week 22)
50.3 ± 2.1 g: Body Weight (week 27)
50.9 ± 2.3 g: Body Weight (week 19) | Body Weight (week 21)
50.6 ± 2.4 g: Body Weight (week 18)
50.9 ± 2.0 g: Body Weight (week 37)
10/10: Survival Rate (week 8) | Survival Rate (week 9) | Survival Rate (week 10) | Survival Rate (week 11) | Survival Rate (week 12) | Survival Rate (week 13) | Survival Rate (week 14) | Survival Rate (week 15) | Survival Rate (week 16) | Survival Rate (week 17) | Survival Rate (week 18) | Survival Rate (week 19) | Survival Rate (week 20) | Survival Rate (week 21) | Survival Rate (week 22) | Survival Rate (week 23) | Survival Rate (week 24) | Survival Rate (week 25) | Survival Rate (week 26) | Survival Rate (week 27) | Survival Rate (week 28) | Survival Rate (week 29) | Survival Rate (week 30) | Survival Rate (week 31) | Survival Rate (week 32) | Survival Rate (week 33) | Survival Rate (week 34) | Survival Rate (week 35) | Survival Rate (week 36) | Survival Rate (week 37) | Survival Rate (week 38) | Survival Rate (week 39) | Survival Rate (week 40) | Survival Rate (week 41) | Survival Rate (week 42) | Survival Rate (week 43) | Survival Rate (week 44) | Survival Rate (week 45) | Survival Rate (week 46) | Survival Rate (week 47) | Survival Rate (week 48) | Survival Rate (week 49) | Survival Rate (week 50)
51.1 ± 2.0 g: Body Weight (week 20)
51.2 ± 2.1 g: Body Weight (week 41) | Body Weight (week 50)
50.7 ± 2.3 g: Body Weight (week 36)
50.6 ± 2.1 g: Body Weight (week 33)
50.9 ± 2.1 g: Body Weight (week 23)
50.6 ± 2.2 g: Body Weight (week 39)
42.7 ± 2.3 g: Body Weight (week 12)
50.4 ± 1.9 g: Body Weight (week 31)
51.2 ± 2.5 g: Body Weight (week 24)
50.7 ± 2.0 g: Body Weight (week 40) | Body Weight (week 45)
50.8 ± 2.2 g: Body Weight (week 25)
50.8 ± 2.3 g: Body Weight (week 34)
47.1 ± 1.8 g: Body Weight (week 14)
39.9 ± 2.1 g: Body Weight (week 11)
